# Data reported in patent US6440391B1, “Management of snoring by oral administration of dimethyl sulfone” (Elstan Corporation, priority 2000, dated 2002).
# Where “and” joins values, the source holds several entries; their conditions need not be identical. Identical values can stand only once.
# Assays:
# [1] = system: snoring; test: Oral spray of methylsulfonylmethane solution onto the oropharynx before sleep; snoring observed by subject's mate; assay type: in vivo, human; parameters: key to Results (relief of snoring): FR = Full Relief; MR = Moderate Relief; NR = No Relief; details: for Results (relief of snoring): one line per subject
# Protocol: The initial experiments to determine effectiveness of the instillation of methylsulfonylmethane as a snoring reduction agent was carried out with an initial sampling of 10 individuals.
# In each of the above cases, the subject was instructed to spray the solution containing the methylsulfonylmethane four (4) times into the oropharynx approximately fifteen (15) minutes to thirty (30) minutes prior to retiring for sleep. Each spray contained about 0.2 ml; to 0.25 ml of the solution. Thus, the total amount instilled is about 0.8 ml to […]. The observation of the presence or absence of snoring was made by the subject's mate. The observing party was not told that the subject was employing […] methylsulfonylmethane. As noted in Table I, 70% of the subject's mates reported the lessening or absence of snoring while 30% reported no benefit from the oral administration of the methylsulfonylmethane.
# The seven patients who reported full relief or moderate relief where thereafter provided with a saline spray as a placebo without their knowledge. In each case the snoring returned. They were again given the methylsulfonylmethane spray and 70% again achieve full relief.
# A second sampling of subjects was undertaken wherein the weight percentage of methylsulfonylmethane in water was varied at 1%, 5% and 10%.
# By warming the solution of water and methylsulfonylmethane to no more than about 37° C. (98.6° F.), a greater concentration of methylsulfonylmethane will go into solution.
# [2] = system: snoring; details: cited from earlier work
# [3] = 15% MSM, oral spray, 10 individuals (Table I)
smiles,measurement,setting,value
"CS(C)(=O)=O [MSM, methylsulfonylmethane]",Results (relief of snoring),"[1]; 1% MSM by weight in water, oral",FR and NR (3×)
same,relief of snoring at lowest concentration,"[1]; 1% by weight in water, oral, Table II",the relief was not reported to be as dramatic as at higher concentrations
same,effectiveness of concentration range against snoring,"[1]; 1%-20% by weight in water, oral, Tables I-III",effective
same,Results (relief of snoring),"[1]; 5% MSM by weight in water, oral",NR (2×) and FR (2×)
same,Results (relief of snoring),"[1]; 10% MSM by weight in water, oral",FR (3×) and NR
same,Results (relief of snoring),"[1]; 15% MSM by weight, oral spray 4 times (0.8-1.2 ml) 15-30 min before sleep",FR (6×) and NR (3×) and MR
same,subject's mates reporting lessening or absence of snoring,[1]; [3],70%
same,subject's mates reporting no benefit,[1]; [3],30%
same,Results (relief of snoring),"[1]; 20% MSM by weight in water, solution warmed to no more than about 37° C., oral",FR
same,patients again achieving full relief when given the spray again,"[1]; the seven responders, re-given MSM spray after saline placebo (snoring returned on placebo)",70%
same,effectiveness of intranasal treatment,"[2]; 1% to 20% by weight, drops into the nasal cavity",highly effective
same,time interval of reduced snoring,[2]; nasal administration saturating mucous membranes of the nasal passageways,8 to 12 h
same,local tolerability on nasal instillation,"[2]; nasal route, some individuals",slight burning sensation
